We go through 1 compound from US20250064733A1, “USE OF PEG-BASED INTERPOLYMER COMPLEXES FOR IMPROVED SOLUBILIZATION F BCS CLASS II DRUGS” (Dow Global Technologies LLC, priority 2022, published 2025).

Structures are written as SMILES.

As a reminder, the solubility is how much of the substance goes into solution per volume.

This data set can be described thus: Apparent aqueous solubility of drug in 1% polymer solution (30 min standing, centrifugation, HPLC of supernatant). The data set is classed as physicochemical. The settings on record: water without polymer; reference value for the increase; read-out: aqueous probucol solubility. Here is the method: The following materials are used. The polyacrylic acid (PAA) has a molecular weight of about 1800, the polyethylene glycol used has either a molecular weight of 4000 or 8000 (as indicated in Table I below). The API chosen is either Probucol (>98% purity) or Ketoprofen (>98% purity). Each polymer or polymer combination shown in Table 1 is added to water in an amount to form 1% polymer solutions. Concentrated API solutions in methanol are prepared by adding 0.2 grams of drug to 10 ml of methanol (20 g/L of drug in methanol).
For each example in Table 1, 912 μl of the indicated polymer solution is transferred into individual vials. Then, 48 μl of drug solution in methanol is added to the polymer solution. These mixtures are agitated via three cycles of aspiration and dispensing using the EVO 200 pipettes. […]
The solubilized drug concentration in each taken aliquot was determined by reverse phase high-performance liquid chromatography (HPLC) analysis. […]
The drug concentration is determined from the measured elution profile by using a linear calibration curve for the respective drug, which was generated by determining the least squares fit of a straight line that described the relation between the concentration of four solutions of known concentrations (about 250, 500, 750, and 1000 mg/L) and the respective peak area integral after injection of 2 μL of each drug in methanol. […]

Regarding `CC(C)(Sc1cc(C(C)(C)C)c(O)c(C(C)(C)C)c1)Sc1cc(C(C)(C)C)c(O)c(C(C)(C)C)c1` [control, Probucol], the solubility at 30 min is 0.042 µg/mL.
